Assay results published in patent US20250134683A1, “MICRO-NANO MEDICAL STENT FOR DIRECTIONAL, QUANTITATIVE AND TIMED RELEASE OF DRUG AND PREPARATION METHOD THEREOF” (GUANGDONG UNIVERSITY OF TECHNOLOGY, priority 2023, published 2025).

Assay: sequential release of drugs from core-shell nano-disordered electrospun fiber structure
Assay type: physicochemical
Conditions: composite electrospun layer of Example 1; roxithromycin in shell layer fiber, human epidermal growth factor in core layer fiber
Text: Moreover, the transmission electron microscopic image of the core-shell nano-disordered electrospun fiber structure in the composite electrospun layer prepared in Example 1 is shown in FIG. 3. […] The coaxial electrospinning realizes the sequential and timed release of the two drugs in the same electrospun layer. Further, the electrospun layer can be prepared by triaxial electrospinning or multiaxial electrospinning process, which has a core-shell structure of three core layers or multi-core layers, thereby achieving the sequential and timed release of three or more drugs in the same electrospun layer.

## CC[C@H]1OC(=O)[C@H](C)[C@@H](O[C@H]2C[C@@](C)(OC)[C@@H](O)[C@H](C)O2)[C@H](C)[C@@H](O[C@@H]2O[C@H](C)C[C@H](N(C)C)[C@H]2O)[C@](C)(O)C[C@@H](C)/C(=N\OCOCCOC)[C@H](C)[C@@H](O)[C@]1(C)O [roxithromycin]
  order of drug release from core-shell fiber: released in advance
